According to the NIST ThermoML archive (doi:10.1021/je049788h):

Test: xn = mol fraction of the nth substance listed
Conditions: 101.3 kPa, Liquid; for viscosity: Capillary tube (Ostwald / Ubbelohde) method; for mass density: Vibrating tube method

COCCOCCOCCOCCOC [2,5,8,11,14-pentaoxapentadecane] + O
Conditions | mass density, 298.15 K [kg/m3] | mass density, 313.15 K [kg/m3] | mass density, 323.15 K [kg/m3] | mass density, 333.15 K [kg/m3] | mass density, 343.15 K [kg/m3] | viscosity, 298.15 K [mPa·s] | viscosity, 313.15 K [mPa·s] | viscosity, 323.15 K [mPa·s] | viscosity, 333.15 K [mPa·s] | viscosity, 343.15 K [mPa·s]
x1 = 0.0199 | 1013.95 | 1006.73 | 1001.25 | 995.13 | 988.58 | 3.11 | 2.11 | 1.71 | 1.41 | 1.18
x1 = 0.051 | 1020.21 | 1011.89 | 1005.7 | 999.35 | 991.92 | 4.04 | 2.64 | 2.12 | 1.69 | 1.41
x1 = 0.1066 | 1038.9 | 1025.7 | 1016.67 | 1007.47 | 998.09 | 6.17 | 3.62 | 2.7 | 2.08 | 1.67
x1 = 0.195 | 1033.66 | 1019.8 | 1010.4 | 1000.92 | 991.28 | 6.22 | 3.77 | 2.86 | 2.24 | 1.8
x1 = 0.3008 | 1026.07 | 1012.12 | 1002.75 | 993.27 | 983.67 | 5.29 | 3.39 | 2.63 | 2.12 | 1.73
x1 = 0.4088 | 1020.42 | 1006.46 | 997.07 | 987.6 | 978.07 | 4.59 | 3.08 | 2.42 | 1.97 | 1.65
x1 = 0.5116 | 1016.56 | 1002.6 | 993.21 | 983.77 | 974.27 | 4.14 | 2.82 | 2.26 | 1.86 | 1.56
x1 = 0.6252 | 1013.52 | 999.55 | 990.2 | 980.79 | 971.34 | 3.81 | 2.65 | 2.15 | 1.78 | 1.51
x1 = 0.7016 | 1011.64 | 997.66 | 988.33 | 978.95 | 969.56 | 3.65 | 2.57 | 2.1 | 1.75 | 1.5
x1 = 0.8037 | 1009.81 | 995.86 | 985.65 | 977.24 | 967.88 | 3.51 | 2.49 | 2.06 | 1.73 | 1.47
x1 = 0.9044 | 1008.44 | 994.51 | 985.23 | 975.95 | 966.66 | 3.41 | 2.44 | 2.01 | 1.69 | 1.45
x1 = 0.9505 | 1007.83 | 993.92 | 984.67 | 975.4 | 966.13 | 3.37 | 2.42 | 2.002 | 1.69 | 1.41
x1 = 1 | 1006.65 | 993.28 | 984.05 | 974.8 | 965.55 | 3.38 | 2.42 | 2.004 | 1.69 | 1.42
